Laboratory results from patent US20040138193A1, “Oestrogen fatty acid monoester as a hypolipidaemic and antidiabetic agent” (priority 2001, published 2004).

Experiments:
[1] = system: genetically obese adult female Zucker rats (genotype fa/fa); assay: Plasma lipoproteinogram (polyacrylamide gel electrophoresis), obese rats; assay type: in vivo, rat; conditions: 10 micromols per kg daily, 10 days
Experimental: FIG. 2 is a lipoproteinogram analogous to the one of FIG. 1, but using obese rats (Zucker fa/fa).
Since treatment with oleoyl-estrone deeply modifies the plasma lipids of rats, an experiment was carried out to determine whether the oral administration of oleoyl-estrone modifies the plasma lipidogram of lean and genetically obese rats. Two groups of animals were used: (1) normal-weight adult female Zucker rats (genotype Fa/?), and (2) genetically obese adult female Zucker rats (genotype fa/fa). In the first group one rat was killed to obtain a sample of blood (intact control); in the second group (obese rats), two intact controls were killed and their blood recovered. All the remaining rats were kept under standard housing conditions, with free access to food and water; the rats receivid a daily gavage of 0.2 ml of sunflower oil by means of a stomach tube; in three rats form each group, the oil was supplemented with enough oleoyl-estrone to achieve a daily dose of 10 micromols per kg of rat weight. After 10 days of treatment, the rats were killed, and their blood was recovered. All blood samples were centrifuged to obtain plasma; plasma proteins were analysed by means of polyacrylamide gel electroforesis (kit Lipofilm, Sebia, Issy les Molineaux, France), lipids were stained with Sudan black.

Zucker fa/fa rat = assay: Plasma parameters after 10 days of daily oral gavage in Zucker fa/fa rats (type 2 diabetes model); assay type: in vivo; conditions: for plasma 3-hydroxybutyrate / plasma non-esterified fatty acids / plasma glucose / plasma insulin / plasma total cholesterol / plasma triacylglycerols: 10 days
Experimental: A study was carried out using the Zucker fa/fa rat as experimental animal model for type 2 diabetes. In these rats a marked insulin resistance is known; their circulating glucose levels are somewhat higher than in normal rats, but their insulin levels are much higher and show marked hypertriacylglycerolemia and hypercholesterolemia. Four groups of adult Zucker fa/fa rats were used, two groups of 6 male rats each and two groups of 6 female rats each. For each sex, the first group was used as control and the other was treated with the drug. All rats were kept under standard housing conditions, with free access to water and pellet food. The animals received a daily gavage of 0.2 ml of sunflower oil by means of a stomach tube. In the treated-rat groups, the oil contained enough oleoyl-estrone dissolved to provide a daily dose of 10 micromol per kg of rat weight. After 10 days of daily gavages, the rats were killed and their blood was recovered, being used to obtain plasma by centrifugation. Plasma samples were used for the analysis of glucose, total cholesterol and triacylglycerols by means of a dry-strip procedure (Spotchem, Menarini, Firenze, Italy), the levels of 3-hydroxybutyrate were measured with the kit 907979 from Boehringer Mannheim (Mannheim, Germany), and non-esterified fatty acids with the kit 1383175 from the same company. Insulin levels were measured through radioimmunoassay (rat insulin kit, Amersham, Amersham, United Kingdom).

lean rats = assay: Lipoprotein separation by ultracentrifugation and lipid composition analysis, lean rats; assay type: in vivo, rat; conditions: 10 μmol/kg daily, vs controls
From the text: Codes in bars are: triacylglycerols=white; phospholipids=lines; cholesterol=dots.
Lipoproteins in fresh plasma were fractionated by differential ultracentrifugation in known density media obtained through the addition of KBr. […] These fractions were used for the analysis of protein and lipidic components, and for the estimation of particle size.
Whole plasma, lipoprotein fractions and LPdp were used for the analysis of protein and lipid content. Total protein was estimated with the Bradford method (cf. M. M. Bradford, Anal. Biochem. 1976, vol. 72, pp. 248-254). Total cholesterol was measured in saline with a high-performance cholesterol kit. Triacylglycerol concentrations were measured with a commercial kit and the results were corrected for free glycerol. Phospholipid was quantified by a choline-based method. […] Recoveries for all plasma components (i.e. deviations from the values in whole plasma and those derived from the sum of its content in lipoprotein fractions) were lowest for triacylglycerols (88±3%) and highest for protein (92±3%). Sudan black-prestained serum samples were sepparated by polyacrylamide gel electrophoresis. Separation of lipoprotein classes through centrifugation allowed a detailed analysis of lipoprotein composition as shown in FIGS. 3 and 4.

Wistar female rats = assay: Dose dependence of plasma parameters after 10 days of daily oral gavage in normal Wistar female rats; assay type: in vivo, rat; conditions: for plasma 3-hydroxybutyrate / plasma glucose / plasma insulin / plasma non-esterified fatty acids / plasma total cholesterol / plasma triacylglycerols: female Wistar rats, 10 days
Experimental: Eight groups of 6 normal Wistar female rats each were used. The animals were kept under standard housing conditions and had free access to pellet food and tap water. All the rats received a daily oral gavage of 0.2 ml of sunflower oil through a stomach tube. This oil contained different amounts of oleoyl-estrone so that the rats received daily doses of 0, 0.2, 0.5, 1, 2, 5, 10 or 20 micromols per kg of body weight. After 10 days of daily gavages, the rats were killed and their blood extracted and used to obtain plasma through centrifugation. Plasma samples were used for the analysis of glucose, total cholesterol and triacylglycerols by means of a dry-strip procedure (Spotchem, Menarini, Firenze, Italy), the levels of 3-hydroxybutyrate were measured with the kit 907979 from Boehringer Mannheim (Mannheim, Germany), and non-esterified fatty acids with the kit 1383175 from the same company. Insulin levels were measured through radioimmunoassay (rat insulin kit, Amersham, Amersham, United Kingdom).

[2] = Zucker fa/fa rats, oral treatment vs controls
[3] = Zucker fa/fa rats, oral treatment vs controls, P<0.05
[4] = female obese Zucker fa/fa rats, 10 μmol/kg · d oral gavage
[5] = female obese Zucker fa/fa rats, 10 mol/kg · d oral gavage
[6] = male obese Zucker fa/fa rats, 10 μmol/kg · d oral gavage
[7] = Wistar female rats, doses 0.2-20 micromols per kg, ANOVA P<0.05

SMILES: CCCCCCCC/C=C\CCCCCCCC(=O)Oc1ccc2c(c1)CC[C@@H]1[C@@H]2CC[C@]2(C)C(=O)CC[C@@H]12 [oleoyl-estrone]
- lipoprotein pattern in lipoproteinogram [1]: this same pattern is repeated, but there is an additional wide band between the LDL and VLDL zones
- change in 3-hydroxybutyrate (Zucker fa/fa rat; [2]): no changes
- change in insulin levels (Zucker fa/fa rat; [2]): marked decrease
- change in non-esterified fatty acids (Zucker fa/fa rat; [2]): no changes
- change in plasma concentration of glucose (Zucker fa/fa rat; [3]): significant decreases
- change in plasma concentration of total cholesterol (Zucker fa/fa rat; [3]): significant decreases
- change in plasma concentration of triacylglycerols (Zucker fa/fa rat; [3]): significant decreases
- plasma 3-hydroxybutyrate (Zucker fa/fa rat; [4]): 187 ± 26 µM
- plasma non-esterified fatty acids (Zucker fa/fa rat; [4]): 642 ± 52 µM
- plasma glucose (Zucker fa/fa rat; [5]): 4.91 ± 0.17 mM
- plasma insulin (Zucker fa/fa rat; [5]): 1.78 ± 0.21 nM
- plasma total cholesterol (Zucker fa/fa rat; [5]): 1.59 ± 0.29 mM
- plasma triacylglycerols (Zucker fa/fa rat; [5]): 1.80 ± 0.17 mM
- plasma 3-hydroxybutyrate (Zucker fa/fa rat; [6]): 281 ± 31 µM
- plasma glucose (Zucker fa/fa rat; [6]): 6.14 ± 0.13 mM
- plasma insulin (Zucker fa/fa rat; [6]): 1.11 ± 0.12 nM
- plasma non-esterified fatty acids (Zucker fa/fa rat; [6]): 720 ± 110 µM
- plasma total cholesterol (Zucker fa/fa rat; [6]): 1.77 ± 0.26 mM
- plasma triacylglycerols (Zucker fa/fa rat; [6]): 1.88 ± 0.19 mM
- change in lipoprotein composition (lean rats): little change
- change of cholesterol in the HDL fraction (lean rats): decreased most
- change of total phospholipid levels in lipoprotein-depleted plasma (lean rats): decrease
- doses giving lower insulin values than controls (Wistar female rats; Wistar female rats, 10 days oral gavage): ≥ 1 micromol/kg and day
- change in circulating levels of 3-hydroxybutyrate (Wistar female rats; [7]): no globally significant changes
- change in circulating levels of glucose (Wistar female rats; [7]): no globally significant changes
- change in circulating levels of non-esterified fatty acids (Wistar female rats; [7]): no globally significant changes
- change in circulating levels of triacylglycerols (Wistar female rats; [7]): no globally significant changes
- drop in insulin levels (Wistar female rats; Wistar female rats, vs controls): significant
- plasma 3-hydroxybutyrate (Wistar female rats; daily gavage 0.2 μmol/kg · d): 291 ± 40 µM
- plasma glucose (Wistar female rats; daily gavage 0.2 μmol/kg · d): 6.35 ± 0.47 mM
- plasma insulin (Wistar female rats; daily gavage 0.2 μmol/kg · d): 0.624 nM
- plasma non-esterified fatty acids (Wistar female rats; daily gavage 0.2 μmol/kg · d): 184 ± 31 µM
- plasma total cholesterol (Wistar female rats; daily gavage 0.2 μmol/kg · d): 1.21 ± 0.12 mM
- plasma triacylglycerols (Wistar female rats; daily gavage 0.2 μmol/kg · d): 1.57 ± 0.43 mM
- plasma 3-hydroxybutyrate (Wistar female rats; daily gavage 0.5 μmol/kg · d): 189 ± 41 µM
- plasma glucose (Wistar female rats; daily gavage 0.5 μmol/kg · d): 5.74 ± 0.31 mM
- plasma insulin (Wistar female rats; daily gavage 0.5 μmol/kg · d): 0.497 ± 0.067 nM
- plasma non-esterified fatty acids (Wistar female rats; daily gavage 0.5 μmol/kg · d): 273 ± 47 µM
- plasma total cholesterol (Wistar female rats; daily gavage 0.5 μmol/kg · d): 1.02 ± 0.08 mM
- plasma triacylglycerols (Wistar female rats; daily gavage 0.5 μmol/kg · d): 1.79 ± 0.23 mM
- plasma 3-hydroxybutyrate (Wistar female rats; daily gavage 1 μmol/kg · d): 305 ± 56 µM
- plasma glucose (Wistar female rats; daily gavage 1 μmol/kg · d): 5.71 ± 0.46 mM
- plasma insulin (Wistar female rats; daily gavage 1 μmol/kg · d): 0.241 ± 0.044 nM
- plasma non-esterified fatty acids (Wistar female rats; daily gavage 1 μmol/kg · d): 147 ± 30 µM
- plasma total cholesterol (Wistar female rats; daily gavage 1 μmol/kg · d): 1.13 ± 0.15 mM
- plasma triacylglycerols (Wistar female rats; daily gavage 1 μmol/kg · d): 1.26 ± 0.26 mM
- plasma 3-hydroxybutyrate (Wistar female rats; daily gavage 2 μmol/kg · d): 263 ± 27 µM
- plasma glucose (Wistar female rats; daily gavage 2 μmol/kg · d): 5.76 ± 0.20 mM
- plasma insulin (Wistar female rats; daily gavage 2 μmol/kg · d): 0.280 ± 0.036 nM
- plasma non-esterified fatty acids (Wistar female rats; daily gavage 2 μmol/kg · d): 281 ± 44 µM
- plasma total cholesterol (Wistar female rats; daily gavage 2 μmol/kg · d): 1.01 ± 0.27 mM
- plasma triacylglycerols (Wistar female rats; daily gavage 2 μmol/kg · d): 1.70 ± 0.11 mM
- plasma 3-hydroxybutyrate (Wistar female rats; daily gavage 5 μmol/kg · d): 300 ± 64 µM
- plasma glucose (Wistar female rats; daily gavage 5 μmol/kg · d): 5.64 ± 0.21 mM
- plasma insulin (Wistar female rats; daily gavage 5 μmol/kg · d): 0.275 ± 0.053 nM
- plasma non-esterified fatty acids (Wistar female rats; daily gavage 5 μmol/kg · d): 213 ± 48 µM
- plasma total cholesterol (Wistar female rats; daily gavage 5 μmol/kg · d): 1.03 ± 0.13 mM
- plasma triacylglycerols (Wistar female rats; daily gavage 5 μmol/kg · d): 1.91 ± 0.33 mM
- plasma 3-hydroxybutyrate (Wistar female rats; daily gavage 10 μmol/kg · d): 301 ± 42 µM
- plasma glucose (Wistar female rats; daily gavage 10 μmol/kg · d): 5.90 ± 0.31 mM
- plasma insulin (Wistar female rats; daily gavage 10 μmol/kg · d): 0.262 ± 0.050 nM
- plasma non-esterified fatty acids (Wistar female rats; daily gavage 10 μmol/kg · d): 152 ± 24 µM
- plasma total cholesterol (Wistar female rats; daily gavage 10 μmol/kg · d): 0.66 ± 0.09 mM
- plasma triacylglycerols (Wistar female rats; daily gavage 10 μmol/kg · d): 1.39 ± 0.14 mM
- plasma 3-hydroxybutyrate (Wistar female rats; daily gavage 20 μmol/kg · d): 237 ± 47 µM
- plasma glucose (Wistar female rats; daily gavage 20 μmol/kg · d): 5.62 ± 0.20 mM
- plasma insulin (Wistar female rats; daily gavage 20 μmol/kg · d): 0.223 ± 0.041 nM
- plasma non-esterified fatty acids (Wistar female rats; daily gavage 20 μmol/kg · d): 122 ± 39 µM
- plasma total cholesterol (Wistar female rats; daily gavage 20 μmol/kg · d): 0.53 ± 0.05 mM
- plasma triacylglycerols (Wistar female rats; daily gavage 20 μmol/kg · d): 0.92 ± 0.11 mM
